What was measured:
[1] = system: miR-193a-3p (RNA, miRNA) AACUGGCCUACAAAGUCCCAGU; test: ITC; settings: 190 mM NaCl; 20 mM HEPES pH 7.2, 1 mM EDTA, 37.5 µg/ml BSA, 0.02% Tween-20; apparent
[2] = system: mutated miR-193a-3p (miR-193a-mut) (RNA, miRNA) AACUUCCUACAAAGUCCCAGU; test: ITC; settings: 190 mM NaCl; 20 mM HEPES pH 7.2, 1 mM EDTA, BSA, Tween-20; 200 µM Trp titrant
[3] = system: miR-193a-3p (RNA, miRNA) AACUGGCCUACAAAGUCCCAGU; test: CD spectra; settings: 190 mM NaCl; 20 mM HEPES pH 7.2, 1 mM EDTA, BSA, Tween-20; 100 nM RNA, 200 µM Trp
[4] = system: mutated miR-193a-3p (miR-193a-mut) (RNA, miRNA) AACUUCCUACAAAGUCCCAGU; test: CD spectra; settings: 190 mM NaCl; 20 mM HEPES pH 7.2, 1 mM EDTA, BSA, Tween-20; 200 µM Trp
[5] = system: miR-193a-5p (RNA, miRNA) UGGGUCUUUGCGGGCAAGAUGA; test: CD spectra; settings: 190 mM NaCl; 20 mM HEPES pH 7.2, 1 mM EDTA, BSA, Tween-20; 200 µM Trp
[6] = system: biotinylated miR-193a-3p (RNA, miRNA) AACUGGCCUACAAAGUCCCAGU; test: SPR (OpenSPR); settings: 190 mM NaCl; 10 mM HEPES, 1 mM EDTA, 0.02% Tween-20; Trp 2, 20, 200 µM

**Q.** With `N[C@@H](Cc1c[nH]c2ccccc12)C(=O)O` as the molecule, how does the Kd [1] read?
**A.** 5.3 µM

**Q.** What about the binding [2] of the same molecule?
**A.** no

**Q.** And the binding [3]?
**A.** yes

**Q.** And the binding [4]?
**A.** no

**Q.** And the binding [5]?
**A.** no

**Q.** What about the binding [6] of the same molecule?
**A.** yes

From PMC11336974 (2024)
